Laboratory results: EPA's ToxRefDB 2

Key:
[1] = system: primate; conditions: Subchronic oral toxicity in nonrodent, Gavage/Intubation, dose end: 91 day, group: systemic, systemic / pathology microscopic / intestine small / erosion
[2] = system: rat; conditions: Sub-acute repeat dose toxicity; wistar; Oral; Gavage/Intubation; dose end: 14 day; group: systemic; systemic / hematology / [other] / [other]
[3] = system: rat; conditions: Sub-acute repeat dose toxicity, Oral, Gavage/Intubation, dose end: 14 day, group: systemic
[4] = system: rat; conditions: Peri- and post-natal toxicity study (Segment III), Oral, Gavage/Intubation, dose end: 1 generation
[5] = system: dog; conditions: Subchronic oral toxicity in nonrodent, beagle, Gavage/Intubation, dose end: 91 day, group: systemic
[6] = system: mouse; conditions: Sub-acute repeat dose toxicity, Oral, Gavage/Intubation, dose end: 14 day, group: systemic
[7] = system: dog; conditions: Subchronic oral toxicity in nonrodent, beagle, Gavage/Intubation, dose end: 91 day, group: systemic, systemic / pathology microscopic / brain / necrosis
[8] = system: dog; conditions: Sub-acute repeat dose toxicity; beagle; Oral; Gavage/Intubation; dose end: 14 day; group: systemic; systemic / clinical chemistry / [other] / [other] + systemic / clinical chemistry / cytochrome p450, nos / cytochrome p450, nos + systemic…
[9] = system: mouse; conditions: Subchronic oral toxicity in rodents, Gavage/Intubation, dose end: 91 day, group: systemic
[10] = system: rat; conditions: Subchronic oral toxicity in rodents, Gavage/Intubation, dose end: 91 day, group: systemic
[11] = system: dog; conditions: Sub-acute repeat dose toxicity, beagle, Oral, Gavage/Intubation, dose end: 14 day, group: systemic
[12] = system: rabbit; conditions: Prenatal developmental toxicity study; Oral; Gavage/Intubation; dose end: 19 GD; group: maternal; reproductive / reproductive performance / aborted / aborted + reproductive / reproductive performance / resorptions / resorptions + systemic…
[13] = system: mouse; conditions: Carcinogenicity, other, Oral, Feed, dose end: 18 month, group: systemic
[14] = system: rat; conditions: Subchronic oral toxicity in rodents, wistar, Feed, dose end: 90 day, group: systemic, systemic / pathology gross / adrenal gland / discolored + systemic / pathology gross / adrenal gland / enlarged + systemic / pathology …
[15] = system: rat; conditions: Subchronic oral toxicity in rodents, wistar, [Not Specified], dose end: 3 month, group: systemic
[16] = system: rat; conditions: Prenatal developmental toxicity study, wistar, Dermal, Topical, dose end: 19 GD
[17] = system: rat; conditions: Carcinogenicity, wistar, Oral, Feed, dose end: 24 month, group: systemic
[18] = systemic / clinical chemistry / [other] / [other]
[19] = systemic / hematology / leukocyte (wbc) count differential / leukocyte (wbc) + systemic / in life observation / body weight / body weight …
[20] = group: maternal, reproductive / offspring survival early / dead fetuses / dead fetuses + reproductive / reproductive performance / dystocia / dystocia + …
[21] = group: maternal, reproductive / offspring survival early / litter size / litter size
[22] = group: parental, systemic / in life observation / clinical signs / body cold to touch + systemic / in life observation / clinical signs / cannibalism + …
[23] = group: parental, systemic / in life observation / clinical signs / body cold to touch + systemic / in life observation / clinical signs / dehydration + …
[24] = systemic / clinical chemistry / alkaline phosphatase (alp/alk) / alkaline phosphatase (alp/alk) + systemic / clinical chemistry / protein / …
[25] = systemic / pathology microscopic / liver / hypertrophy + systemic / pathology microscopic / brain / infiltration cellular + systemic / …
[26] = systemic / clinical chemistry / [other] / [other] + systemic / clinical chemistry / cytochrome p450, nos / cytochrome p450, nos + systemic…
[27] = systemic / clinical chemistry / [other] / [other] + systemic / hematology / leukocyte (wbc) count differential / leukocyte (wbc) + systemic…
[28] = systemic / in life observation / food consumption / food consumption + systemic / pathology microscopic / kidney / dilatation + systemic / …
[29] = systemic / clinical chemistry / [other] / [other] + systemic / clinical chemistry / creatinine / creatinine + systemic / clinical chemistry…
[30] = systemic / in life observation / clinical signs / abnormal feces + systemic / in life observation / food consumption / food consumption + …
[31] = systemic / organ weight / adrenal gland / relative to body weight + systemic / organ weight / brain / relative to body weight + systemic / …
[32] = systemic / organ weight / kidney / nos + systemic / organ weight / prostate / nos + systemic / organ weight / adrenal gland / nos + systemic…
[33] = systemic / organ weight / prostate / nos + systemic / organ weight / adrenal gland / nos + systemic / organ weight / epididymis / nos + …
[34] = group: developmental, developmental / developmental landmark / anogenital distance (agd) / anogenital distance (agd)
[35] = group: developmental, developmental / developmental landmark / anogenital distance (agd) / anogenital distance (agd) + developmental / developmental malformation…
[36] = group: maternal, systemic / organ weight / adrenal gland / absolute
[37] = group: maternal, systemic / organ weight / adrenal gland / absolute + systemic / organ weight / liver / absolute
[38] = systemic / pathology microscopic / liver / eosinophilic focus + systemic / pathology microscopic / lung / foam cell aggregation
[39] = systemic / pathology microscopic / liver / eosinophilic focus + systemic / pathology microscopic / lung / foam cell aggregation + systemic…

In the case of `CC(C)(C)c1cc(/C=C2\SC(N)=NC2=O)cc(C(C)(C)C)c1O.CS(=O)(=O)O` [Darbufelone mesylate], the LEL [1] is reported as 10 mg/kg/day, the LOAEL [1] is reported as > 50 mg/kg/day and the NEL [1] is reported as 5 mg/kg/day. The NOAEL [1] was ≥ 50 mg/kg/day, the LEL [2] was 1 mg/kg/day and the LOAEL [2] was > 75 mg/kg/day. The NEL [2] was < 1 mg/kg/day, the NOAEL [2] was ≥ 75 mg/kg/day and the LEL [3, 18] was 10 mg/kg/day. For the same compound, the NEL [3, 18] was < 10 mg/kg/day, the LOAEL [3, 19] was > 1000 mg/kg/day and the NOAEL [3, 19] was ≥ 1000 mg/kg/day. The LEL [4, 20] was 1 mg/kg/day, the NEL [4, 20] was < 1 mg/kg/day and the LOAEL [4, 21] was > 2 mg/kg/day. For the same compound, the NOAEL [4, 21] was ≥ 2 mg/kg/day, the LEL [4, 22] was 1 mg/kg/day and the NEL [4, 22] was < 1 mg/kg/day. For the same compound, the LOAEL [4, 23] was > 2 mg/kg/day, the NOAEL [4, 23] was ≥ 2 mg/kg/day and the LOAEL [5, 24] was > 10 mg/kg/day. The NOAEL [5, 24] was ≥ 10 mg/kg/day, the LEL [5, 25] was 2 mg/kg/day and the NEL [5, 25] was < 2 mg/kg/day. For the same compound, the LOAEL [6, 26] was > 800 mg/kg/day, the NOAEL [6, 26] was ≥ 800 mg/kg/day and the NEL ([6]; systemic / organ weight / liver / absolute) was < 35 mg/kg/day. The LEL [7] was 2 mg/kg/day, the NEL [7] was < 2 mg/kg/day and the LEL [8] was 2 mg/kg/day. The LOAEL [8] was > 5 mg/kg/day, the NEL [8] was < 2 mg/kg/day and the NOAEL [8] was ≥ 5 mg/kg/day. For the same compound, the LOAEL [9, 27] was > 300 mg/kg/day, the NOAEL [9, 27] was ≥ 300 mg/kg/day and the NEL ([9]; systemic / clinical chemistry / protein / protein) was < 35 mg/kg/day. For the same compound, the LOAEL [10, 26] was > 75 mg/kg/day, the NOAEL [10, 26] was ≥ 75 mg/kg/day and the LEL [10, 28] was 10 mg/kg/day. For the same compound, the NEL [10, 28] was < 10 mg/kg/day, the LOAEL [11, 29] was > 200 mg/kg/day and the NOAEL [11, 29] was ≥ 200 mg/kg/day. For the same compound, the LEL [11, 30] was 10 mg/kg/day, the NEL [11, 30] was < 10 mg/kg/day and the LOAEL [12] was > 35 mg/kg/day. For the same compound, the NOAEL [12] was ≥ 35 mg/kg/day.
With `C=CC1(C)OC(=O)N(c2cc(Cl)cc(Cl)c2)C1=O` (stereo not given) [Vinclozolin] the LOAEL ([13]; systemic / in life observation / body weight / body weight gain) was 20.6 mg/kg/day, the LEL [13, 31] was 2.1 mg/kg/day and the NEL [13, 31] was < 2.1 mg/kg/day. The NOAEL [13, 31] was 2.1 mg/kg/day, the LEL [14] was 24 mg/kg/day and the LOAEL [14] was 24 mg/kg/day. The NEL [14] was 4.4 mg/kg/day, the NOAEL [14] was 4.4 mg/kg/day and the LOAEL [15, 32] was > 225 mg/kg/day. For the same compound, the NOAEL [15, 32] was ≥ 225 mg/kg/day, the LEL [15, 33] was 50 mg/kg/day and the NEL [15, 33] was < 50 mg/kg/day. The LEL [16, 34] was 180 mg/kg/day, the LOAEL [16, 34] was 180 mg/kg/day and the NEL [16, 35] was 60 mg/kg/day. It also gave an NOAEL [16, 35] of 60 mg/kg/day, an LEL [16, 36] of 180 mg/kg/day and an LOAEL [16, 36] of 180 mg/kg/day. It also gave an NEL [16, 37] of 60 mg/kg/day, an NOAEL [16, 37] of 60 mg/kg/day and an LOAEL [17, 38] of 2.3 mg/kg/day. The NOAEL [17, 38] was < 2.3 mg/kg/day, the LEL [17, 39] was 2.3 mg/kg/day and the NEL [17, 39] was < 2.3 mg/kg/day.
